Converted amounts (≈) assume the structure as drawn.

This assay concerns K562. Briefly: Cytotoxicity against human K562 cells. The class given is functional. As to conditions: read-out: LC50 (the source's name).
`C=C(CC[C@@H](C)[C@H]1CC[C@@]2(C(=O)O)C3=C(CC[C@]12C)[C@@]1(C)CCC(O[C@@H]2O[C@H](CO)[C@H](O)[C@H](O[C@@H]4OC[C@H](O)[C@H](O)[C@H]4O)[C@H]2O[C@@H]2O[C@H](CO)[C@@H](O)[C@H](O)[C@H]2NC(C)=O)C(C)(C)[C@@H]1CC3)C(C)C` (some centres undefined) [ERYLOSIDE G]: the CC50 amounted to 22.1 µg/mL (≈ 22.8 µM).

As to `C=C(CC[C@@H](C)[C@H]1CC[C@@]2(C(=O)O)C3=C(CC[C@]12C)[C@@]1(C)CCC(O[C@@H]2O[C@H](CO)[C@H](O)[C@H](O[C@@H]4OC[C@H](O)[C@H](O)[C@H]4O)[C@H]2O[C@@H]2O[C@H](CO)[C@@H](O)[C@H](O)[C@H]2NC(C)=O)C(C)(C)[C@@H]1CC3)C(C)(C)C` (some centres undefined) [ERYLOSIDE I], the CC50 came to 17.9 µg/mL (≈ 18.2 µM). Under `C=C(CC[C@@H](C)[C@H]1CC[C@@]2(C(=O)O)C3=C(CC[C@]12C)[C@@]1(C)CCC(O[C@@H]2OC[C@H](O)[C@H](O[C@@H]4OC[C@H](O)[C@H](O)[C@H]4O)[C@H]2O[C@@H]2O[C@H](CO)[C@@H](O)[C@H](O)[C@H]2NC(C)=O)C(C)(C)[C@@H]1CC3)C(C)C` (some centres undefined) [ERYLOSIDE H] stands 24.8 µg/mL (≈ 26.4 µM); under `C=C(CC[C@@H](C)[C@H]1CC[C@@]2(C(=O)O)C3=C(CC[C@]12C)[C@@]1(C)CCC(O[C@@H]2OC[C@H](O)[C@H](O[C@@H]4OC[C@H](O)[C@H](O)[C@H]4O)[C@H]2O[C@@H]2O[C@H](CO)[C@@H](O)[C@H](O)[C@H]2NC(C)=O)C(C)(C)[C@@H]1CC3)C(C)(C)C` (some centres undefined) [ERYLOSIDE J], 21.8 µg/mL (≈ 22.9 µM).

(Values after ChEMBL document CHEMBL1150863, “New triterpenoid saponins from the sponge Erylus nobilis” (2001).)
